{"source": "ChEMBL document CHEMBL4334464", "about": "“From Phenylthiazoles to Phenylpyrazoles: Broadening the Antibacterial Spectrum toward Carbapenem-Resistant Bacteria” (J Med Chem, 2019)", "note": "Active and inactive are the calls of the source. No cut-off for these calls is given here.", "data": [{"test_system": "Escherichia coli", "assay": "Ratio of MBC to MIC for Escherichia coli ATCC 1411 clinical isolates", "type": "functional", "settings": "not given", "values": [{"smiles": "C/C(=N\\NC(=N)N)c1cnn(-c2ccc(C#CC3(O)CCCCC3)cc2)c1C", "Ratio": ">=1"}]}, {"test_system": "Pseudomonas aeruginosa", "assay": "Antibacterial activity against Pseudomonas aeruginosa ATCC 15442 clinical isolates after 18 to 20 hrs in aerobic condition by CLSI-based broth microdilution assay", "type": "functional", "settings": "not given", "units": {"MIC": "µg/mL"}, "values": [{"smiles": "C/C(=N\\NC(=N)N)c1cnn(-c2ccc(C#CC3(O)CCCCC3)cc2)c1C", "MIC": 64}]}, {"test_system": "Escherichia coli", "assay": "Ratio of MBC to MIC for Escherichia coli BW25113 clinical isolates", "type": "functional", "settings": "not given", "values": [{"smiles": "C/C(=N\\NC(=N)N)c1cnn(-c2ccc(C#CC3(O)CCCCC3)cc2)c1C", "Ratio": ">=1"}]}, {"test_system": "Pseudomonas aeruginosa", "assay": "Antibacterial activity against carbapenem-resistant Pseudomonas aeruginosa ATCC 1744 clinical isolates after 18 to 20 hrs in aerobic condition by CLSI-based broth microdilution assay", "type": "functional", "settings": "not given", "units": {"MIC": "µg/mL"}, "values": [{"smiles": "C/C(=N\\NC(=N)N)c1cnn(-c2ccc(C#CC3(O)CCCCC3)cc2)c1C", "MIC": 64}]}, {"test_system": "Streptococcus pneumoniae", "assay": "Ratio of MBC to MIC for […] Streptococcus pneumoniae ATCC 700677 clinical isolates", "type": "functional", "settings": "not given", "values": [{"smiles": "C/C(=N\\NC(=N)N)c1cnn(-c2ccc(C#CC3(O)CCCCC3)cc2)c1C", "Ratio": "<3"}]}, {"test_system": "Escherichia coli", "assay": "Antimicrobial activity against Escherichia coli JW55031 harboring deltatolC mutant after 18 to 20 hrs in aerobic condition by CLSI protocol based broth microdilution assay", "type": "functional", "settings": "not given", "units": {"MIC": "µg/mL"}, "values": [{"smiles": "C/C(=N\\NC(=N)N)c1cnn(-c2ccc(C#CC3(O)CCCCC3)cc2)c1C", "MIC": 4}]}, {"test_system": "Listeria monocytogenes", "assay": "Ratio of MBC to MIC for Listeria monocytogenes ATCC 19111 clinical isolates", "type": "functional", "settings": "not given", "values": [{"smiles": "C/C(=N\\NC(=N)N)c1cnn(-c2ccc(C#CC3(O)CCCCC3)cc2)c1C", "Ratio": "<3"}]}, {"test_system": "Enterococcus faecalis", "assay": "Ratio of MBC to MIC for vancomycin-resistant Enterococcus faecalis ATCC 51299 clinical isolates", "type": "functional", "settings": "not given", "values": [{"smiles": "C/C(=N\\NC(=N)N)c1cnn(-c2ccc(C#CC3(O)CCCCC3)cc2)c1C", "Ratio": "<3"}]}, {"test_system": "Streptococcus pneumoniae", "assay": "Antibacterial activity against cephalosporin-resistant Streptococcus pneumoniae ATCC 51916 clinical isolates after 18 to 20 hrs by CLSI-based broth microdilution assay", "type": "functional", "settings": "not given", "units": {"MIC": "µg/mL"}, "values": [{"smiles": "C/C(=N\\NC(=N)N)c1cnn(-c2ccc(C#CC3(O)CCCCC3)cc2)c1C", "MIC": 4}]}, {"test_system": "Clostridioides difficile", "assay": "Ratio of MBC to MIC for Clostridium difficile ATCC BAA 1870", "type": "functional", "settings": "not given", "values": [{"smiles": "C/C(=N\\NC(=N)N)c1cnn(-c2ccc(C#CC3(O)CCCCC3)cc2)c1C", "Ratio": "<3"}]}, {"test_system": "Staphylococcus aureus", "assay": "Antibacterial activity against methicillin-resistant Staphylococcus aureus NRS384-USA300 clinical isolates after 18 to 20 hrs in aerobic condition by CLSI protocol based broth microdilution assay", "type": "functional", "settings": "not given", "units": {"MIC": "µg/mL"}, "values": [{"smiles": "C/C(=N\\NC(=N)N)c1cnn(-c2ccc(C#CC3(O)CCCCC3)cc2)c1C", "MIC": 2}]}, {"test_system": "Acinetobacter baumannii", "assay": "Antibacterial activity against Acinetobacter baumannii NR 17786 clinical isolates after 18 to 20 hrs in aerobic condition by CLSI-based broth microdilution assay", "type": "functional", "settings": "not given", "units": {"MIC": "µg/mL"}, "values": [{"smiles": "C/C(=N\\NC(=N)N)c1cnn(-c2ccc(C#CC3(O)CCCCC3)cc2)c1C", "MIC": 16}]}, {"test_system": "Escherichia coli", "assay": "microbe, parasite or virus in culture", "settings": "ATCC 1411", "units": {"MIC": "µg/mL"}, "description": "Antibacterial activity against Escherichia coli ATCC 1411 clinical isolates after 18 to 20 hrs in aerobic condition by CLSI-based broth microdilution assay", "values": [{"smiles": "C/C(=N\\NC(=N)N)c1cnn(-c2ccc(C#CC3(O)CCCCC3)cc2)c1C", "MIC": 32}]}, {"test_system": "Pseudomonas aeruginosa", "assay": "Ratio of MBC to MIC for Pseudomonas aeruginosa ATCC 9027 clinical isolates", "type": "functional", "settings": "not given", "values": [{"smiles": "C/C(=N\\NC(=N)N)c1cnn(-c2ccc(C#CC3(O)CCCCC3)cc2)c1C", "Ratio": ">=1"}]}, {"test_system": "Pseudomonas aeruginosa", "assay": "microbe, parasite or virus in culture", "settings": "ATCC 25619", "units": {"MIC": "µg/mL"}, "description": "Antibacterial activity against Pseudomonas aeruginosa ATCC 25619 clinical isolates after 18 to 20 hrs in aerobic condition by CLSI-based broth microdilution assay", "values": [{"smiles": "C/C(=N\\NC(=N)N)c1cnn(-c2ccc(C#CC3(O)CCCCC3)cc2)c1C", "MIC": 32}]}, {"test_system": "Clostridioides difficile", "assay": "Antibacterial activity against Clostridium difficile ATCC BAA 1870 incubated for 48 hrs in anaerobic condition by CLSI-based broth microdilution assay", "type": "functional", "settings": "ATCC BAA 1870, 48 h", "units": {"MIC": "µg/mL"}, "values": [{"smiles": "C/C(=N\\NC(=N)N)c1cnn(-c2ccc(C#CC3(O)CCCCC3)cc2)c1C", "MIC": 4}]}, {"test_system": "Klebsiella pneumoniae", "assay": "Antibacterial activity against carbapenem-resistant Klebsiella pneumoniae ATCC BAA-1705 clinical isolates after 18 to 20 hrs in aerobic condition by CLSI-based broth microdilution assay", "type": "functional", "settings": "not given", "units": {"MIC": "µg/mL"}, "values": [{"smiles": "C/C(=N\\NC(=N)N)c1cnn(-c2ccc(C#CC3(O)CCCCC3)cc2)c1C", "MIC": 64}]}, {"test_system": "Klebsiella pneumoniae", "assay": "Antibacterial activity against Klebsiella pneumoniae BAA-1706 clinical isolates after 18 to 20 hrs in aerobic condition by CLSI-based broth microdilution assay", "type": "functional", "settings": "not given", "units": {"MIC": "µg/mL"}, "values": [{"smiles": "C/C(=N\\NC(=N)N)c1cnn(-c2ccc(C#CC3(O)CCCCC3)cc2)c1C", "MIC": 8}]}, {"test_system": "Klebsiella pneumoniae", "assay": "Antibacterial activity against carbapenem-resistant Klebsiella pneumoniae ATCC BAA-2146 clinical isolates after 18 to 20 hrs in aerobic condition by CLSI-based broth microdilution assay", "type": "functional", "settings": "not given", "units": {"MIC": "µg/mL"}, "values": [{"smiles": "C/C(=N\\NC(=N)N)c1cnn(-c2ccc(C#CC3(O)CCCCC3)cc2)c1C", "MIC": "> 64"}]}, {"test_system": "Salmonella enterica", "assay": "Antibacterial activity against Salmonella enterica NR-170 clinical isolates after 18 to 20 hrs in aerobic condition by CLSI-based broth microdilution assay", "type": "functional", "settings": "not given", "units": {"MIC": "µg/mL"}, "values": [{"smiles": "C/C(=N\\NC(=N)N)c1cnn(-c2ccc(C#CC3(O)CCCCC3)cc2)c1C", "MIC": 16}]}, {"test_system": "Enterococcus faecium", "assay": "Ratio of MBC to MIC for vancomycin-resistant Enterococcus faecium ATCC 700221 clinical isolates", "type": "functional", "settings": "not given", "values": [{"smiles": "C/C(=N\\NC(=N)N)c1cnn(-c2ccc(C#CC3(O)CCCCC3)cc2)c1C", "Ratio": "<3"}]}, {"test_system": "Salmonella enteritidis", "assay": "Ratio of MBC to MIC for Salmonella enteritidis ATCC 14028 clinical isolates", "type": "functional, Salmonella enterica subsp. enterica serovar Enteritidis", "settings": "not given", "values": [{"smiles": "C/C(=N\\NC(=N)N)c1cnn(-c2ccc(C#CC3(O)CCCCC3)cc2)c1C", "Ratio": ">=1"}]}, {"test_system": "Staphylococcus aureus", "assay": "Bactericidal activity against methicillin-resistant Staphylococcus aureus NRS123-USA400 clinical isolates at 5 times MIC incubated over 24 hrs followed by replating on tryptic soy agar plate and further incubated for 18 to 20 hrs by time kill assay", "type": "functional, organism-based", "settings": "not given", "values": [{"smiles": "C/C(=N\\NC(=N)N)c1cnn(-c2ccc(C#CC3(O)CCCCC3)cc2)c1C", "Activity": "Active"}]}, {"test_system": "Streptococcus pneumoniae", "assay": "Antibacterial activity against methicillin-resistant Streptococcus pneumoniae ATCC 700677 clinical isolates after 18 to 20 hrs by CLSI-based broth microdilution assay", "type": "functional", "settings": "not given", "units": {"MIC": "µg/mL"}, "values": [{"smiles": "C/C(=N\\NC(=N)N)c1cnn(-c2ccc(C#CC3(O)CCCCC3)cc2)c1C", "MIC": 2}]}, {"test_system": "Staphylococcus aureus", "assay": "Antibacterial activity against Methicillin-resistant Staphylococcus aureus NRS123-USA400 clinical isolates after 18 to 20 hrs in aerobic condition by CLSI protocol based broth microdilution assay", "type": "functional", "settings": "not given", "units": {"MIC": "µg/mL"}, "values": [{"smiles": "C/C(=N\\NC(=N)N)c1cnn(-c2ccc(C#CC3(O)CCCCC3)cc2)c1C", "MIC": 2}]}, {"test_system": "Acinetobacter baumannii", "assay": "microbe, parasite or virus in culture", "settings": "ATCC BAA 1747", "units": {"MIC": "µg/mL"}, "description": "Antibacterial activity against Acinetobacter baumannii ATCC BAA 1747 after 18 to 20 hrs in aerobic condition by CLSI-based broth microdilution assay", "values": [{"smiles": "C/C(=N\\NC(=N)N)c1cnn(-c2ccc(C#CC3(O)CCCCC3)cc2)c1C", "MIC": 16}]}, {"test_system": "Escherichia coli", "assay": "Antibacterial activity against Escherichia coli ATCC 25922 clinical isolates after 18 to 20 hrs in aerobic condition by CLSI-based broth microdilution assay", "type": "functional", "settings": "not given", "units": {"MIC": "µg/mL"}, "values": [{"smiles": "C/C(=N\\NC(=N)N)c1cnn(-c2ccc(C#CC3(O)CCCCC3)cc2)c1C", "MIC": 8}]}, {"test_system": "Acinetobacter baumannii", "assay": "Ratio of MBC to MIC for Acinetobacter baumannii ATCC BAA 1141 clinical isolates", "type": "functional", "settings": "not given", "values": [{"smiles": "C/C(=N\\NC(=N)N)c1cnn(-c2ccc(C#CC3(O)CCCCC3)cc2)c1C", "Ratio": ">=1"}]}, {"test_system": "Staphylococcus epidermidis", "assay": "Ratio of MBC to MIC for Staphylococcus epidermidis NRS101 clinical isolates", "type": "functional", "settings": "not given", "values": [{"smiles": "C/C(=N\\NC(=N)N)c1cnn(-c2ccc(C#CC3(O)CCCCC3)cc2)c1C", "Ratio": "<3"}]}, {"test_system": "Staphylococcus aureus", "assay": "Antibacterial activity against Methicillin-sensitive Staphylococcus aureus NRS107 clinical isolates after 18 to 20 hrs in aerobic condition by CLSI protocol based broth microdilution assay", "type": "functional", "settings": "not given", "units": {"MIC": "µg/mL"}, "values": [{"smiles": "C/C(=N\\NC(=N)N)c1cnn(-c2ccc(C#CC3(O)CCCCC3)cc2)c1C", "MIC": 4}]}]}
